Target: T1, Na⁺-abhängiges Gallensäuretransportsystem (Bürstensaummembranvesikel des Ileums) (Oryctolagus cuniculus, UniProt Q28727)
T1 construct: Präparation von Bürstensaummembranvesikeln aus dem Ileum von Kaninchen; from tissue; host or cells: Brush border membrane vesicles from the terminal ileum of male New Zealand rabbits (Mg2+ precipitation method)
T1 sequence (Q28727 1-347): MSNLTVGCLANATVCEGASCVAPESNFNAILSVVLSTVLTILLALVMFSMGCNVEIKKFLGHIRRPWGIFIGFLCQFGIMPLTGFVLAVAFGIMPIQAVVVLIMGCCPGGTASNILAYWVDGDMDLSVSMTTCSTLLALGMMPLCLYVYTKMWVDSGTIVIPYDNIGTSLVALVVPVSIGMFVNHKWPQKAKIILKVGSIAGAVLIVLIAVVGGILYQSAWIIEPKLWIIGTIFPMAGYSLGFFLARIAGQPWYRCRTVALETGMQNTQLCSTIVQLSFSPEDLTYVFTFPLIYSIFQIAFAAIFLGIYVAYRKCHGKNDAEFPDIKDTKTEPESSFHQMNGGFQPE
Assay: Inhibition of [³H]-taurocholate uptake into brush border membrane vesicles of rabbit ileum (membrane filtration technique)
Type: biochemical, Kaninchen
Details: 50 µM Taurocholat; for IC50Na-TCDC[µmol] / IC50Na-Substanz[µmol]: quotient of IC50Na of reference Taurochenodesoxycholat (TCDC) and IC50Na of test substance, Na⁺-dependent transport part (difference Na-T-P minus K-T-P); for IC50-TCDC[µmol] / IC50-Substanz[µmol]: quotient of IC50 of reference Taurochenodesoxycholat (TCDC) and IC50 of test substance, [³H]-Taurocholat uptake, usually 1 min incubation
Source text: Die biologische Prüfung der erfindungsgemäßen Verbindungen erfolgte durch Ermittlung der Hemmung der [³H]-Taurocholataufnahme in Bürstensaummembranvesikel des Ileums von Kaninchen. Der Hemmtest wurde wie folgt durchgeführt:
1. Präparation von Bürstensaummembranvesikeln aus dem Ileum von Kaninchen
Die Präparation von Bürstensaummembranvisikeln aus den Darmzellen des Dünndarm erfolgte mit der sogenannten Mg²⁺-Präzipitationsmethode. Männliche Neuseeland-Kaninchen (2 bis 2,5 kg Körpergewicht) wurden durch intravenöse Injektion von 0,5 ml einer wäßrigen Lösung von 2,5 mg Tetracain HCl, 100 T 61^R und 25 mg Mebezoniumjodid getötet. Der Dünndarm wurde entnommen und mit eiskalter physiologischer Kochsalzlösung gespült. Die terminalen 7/10 des Dünndarms (gemessen in oral rectaler Richtung, d. h. das terminale Ileum, welches das aktive Na⁺-abhängige Gallensäuretransportsystem enthält) wurden zur Präparation der Bürstensaummembranvesikel verwendet. Die Därme wurden in Kunststoffbeuteln unter Stickstoff bei -80°C eingefroren. Zur Präparation der Membranvesikel wurden die eingefrorenen Därme bei 30°C im Wasserbad aufgetaut. Die Mucosa wurde abgeschabt und in 60 ml eiskaltem 12 mM Tris/HCl-Puffer (pH 7,1)/300 mM Mannit, 5 mM EGTA/10 mg/l Phenylmethylsulfonylfluorid/1 mg/l Trypsin Inhibitor v. Sojabohnen (32 U/mg)/0,5 mg/l Trypsin Inhibitor v. Rinderlunge (193 U/mg)15 mg/l Bacitracin suspendiert. Nach dem Verdünnen auf 300 ml mit eiskaltem destilliertem Wasser wurde mit einem Ultraturrax (18-Stab, IKA Werk Staufen, BRD) 3 Minuten bei 75 % max. Leistung unter Eiskühlung homogenisiert. Nach Zugabe von 3 ml 1 M MgCl₂-Lösung (Endkonzentration 10 mM) ließ man exakt 1 Minute bei 0°C stehen. Durch Zugabe von Mg²⁺ aggregieren die Zellmembranen und präzipitieren mit Ausnahme der Bürstensaummembranen. Nach einer 15-minütigen Zentrifugation bei 3000 x g (5000 rpm, SS-34-Rotor) wurde der Niederschlag verworfen und der Überstand, der die Bürstensaummembranen enthält, 30 Minuten bei […] (15000 rpm, SS-34-Rotor) zentrifugiert. Der Überstand wurde verworfen, der Niederschlag in 60 ml 12 mM Tris/HCl-Puffer (pH 7,1)/60 mM Mannit, 5 mM EGTA mit einem Potter Elvejhem Homogenisator (Braun, Melsungen, 900 rpm, 10 Hübe) rehomogenisiert. Nach Zugabe von 0,1 ml 1 M MgCl₂-Lösung und 15-minütiger Inkubationszeit bei 0°C wurde erneut 15 Minuten bei 3000 x g zentrifugiert. Der Überstand wurde anschließend nochmals 30 Minuten bei 46000 x g (15000 rpm, SS-34-Rotor) zentrifugiert. Der Niederschlag wurde in 30 ml 10 mM Tris/Hepes-Puffer (pH 7,4)/300 mM Mannit aufgenommen und durch 20 Hübe in einem Potter Elvejhem Homogenisator bei 1000 rpm homogen resuspendiert. Nach 30 minütiger Zentrifugation bei 48000 x g (20000 rpm, SS-34-Rotor) wurde der Niederschlag in 0,5 bis 2 ml Tris/Hepes-Puffer (pH 7,4)/280 mM Mannit (Endkonzentration 20 mg/ml) aufgenommen und mit Hilfe einer Tuberkulinspritze mit einer 27 Gauge-Nadel resuspendiert. Die Vesikel wurden entweder unmittelbar nach der Präparation für Transportuntersuchungen verwendet oder bei -196°C in 4 mg Portionen in flüssigem Stickstoff aufbewahrt.
2. Hemmung der Na⁺-abhängigen [³H]Taurocholat-Aufnahme in Bürstensaummembranvesikel des Ileums
Die Aufnahme von Substraten in die vorstehend beschriebenen Bürstensaummembranvesikel wurde mittels der sogenannten Membranfiltrationstechnik bestimmt. 10 µl der Vesikelsuspension (100 µg Protein) wurden als Tropfen an die Wand eines Polystyrolinkubationsröhrchens (11 x 70 mm) pipettiert, welches das Inkubationsmedium mit den entsprechenden Liganden enthielt (90 µl). Das Inkubationsmedium enthielt 0,75 µl = 0,75 µCi [³H(G)]-Taurocholat (spezifische Aktivität: 2,1 Ci/mMol) /0,5 µl 10 mM Taurocholat/8,75 µl Natrium-Transport-Puffer (10 mM Tris/Hepes, (pH 7,4)/100 mM Mannit/100 mM NaCl) (Na-T-P) bzw. 8,75 µl Kalium-Transport-Puffer (10 mM Tris/Hepes (pH 7,4)/100 mM Mannit/100 mM KCl) (K-T-P) und 80 µl der betreffenden Inhibitorlösung, je nach Experiment in Na-T-Puffer bzw. K-T-Puffer gelöst. […]

Structure (SMILES)	IC50Na-TCDC[µmol] / IC50Na-Substanz[µmol]	IC50-TCDC[µmol] / IC50-Substanz[µmol]
COC(=O)CC[C@@H](C)[C@H]1CC[C@H]2[C@@H]3[C@H](OCCNC(=O)CCC(=O)NCCCNC(=O)CC[C@@H](C)[C@H]4CC[C@H]5[C@@H]6[C@H](O)C[C@@H]7C[C@H](OC(c8ccccc8)c8ccccc8)CC[C@]7(C)[C@H]6C[C@H](O)[C@]45C)C[C@@H]4C[C@H](OC(C)=O)CC[C@]4(C)[C@H]3C[C@H](O)[C@]12C [Beispiel 20]	0,12	
C[C@H](CCC(=O)N[C@H]1C[C@@H]2C[C@H](O)CC[C@]2(C)[C@H]2C[C@H](O)[C@]3(C)[C@@H]([C@H](C)CCC(=O)O)CC[C@H]3[C@H]12)[C@H]1CC[C@H]2[C@@H]3[C@H](O)C[C@@H]4C[C@H](O)CC[C@]4(C)[C@H]3C[C@H](O)[C@]12C [Beispiel 26]	0,29	
C[C@H](CCC(=O)N[C@H]1C[C@@H]2C[C@H](O)CC[C@]2(C)[C@H]2C[C@H](O)[C@]3(C)[C@@H]([C@H](C)CCC(=O)O)CC[C@H]3[C@H]12)[C@H]1CC[C@H]2[C@@H]3[C@H](O)C[C@@H]4C[C@H](O)CC[C@]4(C)[C@H]3CC[C@]12C [Beispiel 27]	0,44	0,64
C[C@H](CCC(=O)N[C@H]1C[C@@H]2C[C@H](O)CC[C@]2(C)[C@H]2C[C@H](O)[C@]3(C)[C@@H]([C@H](C)CCC(=O)O)CC[C@H]3[C@H]12)[C@H]1CC[C@H]2[C@@H]3[C@@H](O)C[C@@H]4C[C@H](O)CC[C@]4(C)[C@H]3CC[C@]12C [Beispiel 28]	0,43	0,54
C[C@H](CCC(=O)N[C@H]1C[C@@H]2C[C@H](O)CC[C@]2(C)[C@H]2C[C@H](O)[C@]3(C)[C@@H]([C@H](C)CCC(=O)O)CC[C@H]3[C@H]12)[C@H]1CC[C@H]2[C@@H]3CC[C@@H]4C[C@H](O)CC[C@]4(C)[C@H]3CC[C@]12C [Beispiel 29]	0,17	0,23
C[C@H](CCC(=O)NCCO[C@@H]1C[C@@H]2C[C@H](O)CC[C@]2(C)[C@H]2C[C@H](O)[C@]3(C)[C@@H]([C@H](C)CCC(=O)O)CC[C@H]3[C@H]12)[C@H]1CC[C@H]2[C@@H]3[C@H](O)C[C@@H]4C[C@H](O)CC[C@]4(C)[C@H]3C[C@H](O)[C@]12C [Beispiel 30]	0,85	0,93
C[C@H](CCC(=O)NCCCNC(=O)CCC(=O)NCCO[C@@H]1C[C@@H]2C[C@H](O)CC[C@]2(C)[C@H]2C[C@H](O)[C@]3(C)[C@@H]([C@H](C)CCC(=O)O)CC[C@H]3[C@H]12)[C@H]1CC[C@H]2[C@@H]3[C@H](O)C[C@@H]4C[C@H](O)CC[C@]4(C)[C@H]3C[C@H](O)[C@]12C [Beispiel 32]	0,80	1,00
C[C@H](CCC(=O)N[C@H]1C[C@@H]2C[C@H](O)CC[C@]2(C)[C@H]2C[C@H](O)[C@]3(C)[C@@H]([C@H](C)CCC(=O)NCCS(=O)(=O)O)CC[C@H]3[C@H]12)[C@H]1CC[C@H]2[C@@H]3[C@H](O)C[C@@H]4C[C@H](O)CC[C@]4(C)[C@H]3C[C@H](O)[C@]12C [Beispiel 39]	1,05	0,92
C[C@H](CCC(=O)N[C@H]1C[C@@H]2C[C@H](O)CC[C@]2(C)[C@H]2C[C@H](O)[C@]3(C)[C@@H]([C@H](C)CCC(=O)NCCS(=O)(=O)O)CC[C@H]3[C@H]12)[C@H]1CC[C@H]2[C@@H]3[C@H](O)C[C@@H]4C[C@H](O)CC[C@]4(C)[C@H]3CC[C@]12C [Beispiel 40]	0,52	0,54
C[C@H](CCC(=O)NCCO[C@@H]1C[C@@H]2C[C@H](O)CC[C@]2(C)[C@H]2C[C@H](O)[C@]3(C)[C@@H]([C@H](C)CCC(=O)NCCS(=O)(=O)O)CC[C@H]3[C@H]12)[C@H]1CC[C@H]2[C@@H]3[C@H](O)C[C@@H]4C[C@H](O)CC[C@]4(C)[C@H]3C[C@H](O)[C@]12C [Beispiel 43]	0,96	1,18
